This passage reports fold induction results from patent US20150126530A1, “Novel Substituted Imidazopyrimidines as Gpbar1 Receptor Modulators” (Torrent Pharmaceuticals Limited., priority 2011, published 2015).

The experiment has as its target T1, human TGR5 (Homo sapiens, UniProt Q8TDU6).
T1 construct: host or cells: CHO cells (ATCC)
T1 sequence (Q8TDU6 1-330): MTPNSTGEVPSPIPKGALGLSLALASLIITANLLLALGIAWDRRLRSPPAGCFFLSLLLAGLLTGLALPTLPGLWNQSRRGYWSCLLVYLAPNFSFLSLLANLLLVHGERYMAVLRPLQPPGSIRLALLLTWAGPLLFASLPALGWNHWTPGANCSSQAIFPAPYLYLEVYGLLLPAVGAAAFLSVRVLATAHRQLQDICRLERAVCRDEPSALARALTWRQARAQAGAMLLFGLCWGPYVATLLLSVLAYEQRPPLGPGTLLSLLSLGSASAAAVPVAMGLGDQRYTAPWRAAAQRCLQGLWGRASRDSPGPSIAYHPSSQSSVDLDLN
The experiment in a line: cAMP Responsive Element (CRE)-Reporter Assay. It counts as cell-based. The following applies: luciferase activity relative to vehicle control, five hours, CHO cells transfected with human TGR5 and CRE-luciferase. The protocol:
(A) cAMP Responsive Element (CRE)-Reporter Assay:
CHO cells (ATCC) were transfected with human TGR5 (oriGene) and CRE-luciferase reporter vector. Transfected cells were treated with vehicle control or test compounds (Conc 10 μM) for five hours and then lysed. Cell lysates were monitored for luciferase acivity. Increase in luciferase activity is considered as a result of TGR5 activation. Results were expressed as fold induction as compared to vehicle control.
Results are summarized in Table 2 where, + indicates 1.5-2 fold while ++, +++, ++++ indicate 2-3 fold, 3-4 fold, and >4 fold induction respectively relative to vehicle control when tested at 10 μM concentration.

A value given as a limit tells only on which side of the number the result lay.

Regarding `CN(C(=O)c1c(-c2ccccc2)nc2ncccn12)c1cccc(Cl)c1` [Compound no. 2, N-(3-chlorophenyl)-N-methyl-2-phenylimidazo[1,2-a]pyrimidine-3-carboxamide], the fold induction at 10 µM lay in the range of 3 to 4.
In the case of `CN(C(=O)c1c(-c2ccccc2)nc2ncccn12)c1ccc(CC(=O)O)cc1` [Compound no. 3, (4-{methyl[(2-phenylimidazo[1,2-a]pyrimidin-3-yl)carbonyl]amino}phenyl)acetic acid], the fold induction at 10 µM was 1.5 to 2.
`CN(C(=O)c1c(-c2ccc(Cl)cc2)nc2ncccn12)c1ccc2c(c1)CCC2` [Compound no. 4, 2-(4-chlorophenyl)-N-(2,3-dihydro-1H-inden-5-yl)-N-methylimidazo[1,2-a]pyrimidine-3-carboxamide] had a fold induction at 10 µM of 3 to 4.
The same measure for `CN(C(=O)c1c(-c2ccc(Cl)cc2)nc2ncccn12)c1ccc(Cl)cc1` [Compound no. 5, N,2-bis(4-chlorophenyl)-N-methylimidazo[1,2-a]pyrimidine-3-carboxamide]: over 4.
On to `CN(C(=O)c1c(-c2ccc(F)cc2)nc2ncccn12)c1ccc2c(c1)CCC2` [Compound no. 6, N-(2,3-dihydro-1H-inden-5-yl)-2-(4-fluorophenyl)-N-methylimidazo[1,2-a]pyrimidine-3-carboxamide], for which the fold induction at 10 µM lay within 3 to 4.
As to `CN(C(=O)c1c(-c2ccccn2)nc2ncccn12)c1ccc(Cl)cc1` [Compound no. 11, N-(4-chlorophenyl)-N-methyl-2-(pyridin-2-yl)imidazo[1,2-a]pyrimidine-3-carboxamide], the fold induction at 10 µM was in the range of 1.5 to 2.
In the case of `CN(C(=O)c1c(Oc2ccc(F)cc2)nc2ncccn12)c1ccc(F)cc1F` [Compound no. 46, N-(2,4-difluorophenyl)-2-(4-fluorophenoxy)-N-methylimidazo[1,2-a]pyrimidine-3-carboxamide] it was 2 to 3.
In the case of `CN(C(=O)c1c(-c2ccc(-c3ccccc3)cc2)nc2ncccn12)c1ccc(Cl)cc1` [compound 8, 2-(biphenyl-4-yl)-N-(4-chlorophenyl)-N-methylimidazo[1,2-a]pyrimidine-3-carboxamide] it was 3 to 4.
In the case of `CN(C(=O)c1c(-c2ccc(-c3ccccc3)cc2)nc2ncccn12)c1ccc2c(c1)CCC2` [compound 9, 2-(biphenyl-4-yl)-N-(2,3-dihydro-1H-inden-5-yl)-N-methylimidazo[1,2-a]pyrimidine-3-carboxamide] it was 2 to 3; in that of `COc1ccc(-c2nc3ncccn3c2C(=O)N(C)c2ccc(Cl)cc2)cc1OC` [compound 10, N-(4-chlorophenyl)-2-(3,4-dimethoxyphenyl)-N-methylimidazo[1,2-a]pyrimidine-3-carboxamide], 3 to 4; in that of `CN(C(=O)c1c(-c2ccccc2)nc2ncc(-c3ccccc3)cn12)c1ccc(Cl)cc1` [compound 12, N-(4-chlorophenyl)-N-methyl-2,6-diphenylimidazo[1,2-a]pyrimidine-3-carboxamide], 2 to 3.
The compound `COc1ccc(-c2nc3ncccn3c2C(=O)N(C)c2ccc3c(c2)CCC3)cc1OC` [compound 13, N-(2,3-dihydro-1H-inden-5-yl)-2-(3,4-dimethoxyphenyl)-N-methylimidazo[1,2-a]pyrimidine-3-carboxamide] registered a fold induction at 10 µM of 3 to 4.
`CN(C(=O)c1c(-c2ccc(Cl)c(Cl)c2)nc2ncccn12)c1ccc(Cl)cc1` [compound 14, N-(4-chlorophenyl)-2-(3,4-dichlorophenyl)-N-methylimidazo[1,2-a]pyrimidine-3-carboxamide] yielded a fold induction at 10 µM of 3 to 4.
Regarding `CN(C(=O)c1c(-c2ccc(O)c(O)c2)nc2ncccn12)c1ccc2c(c1)CCC2` [compound 15, N-(2,3-dihydro-1H-inden-5-yl)-2-(3,4-dihydroxyphenyl)-N-methylimidazo[1,2-a]pyrimidine-3-carboxamide], the fold induction at 10 µM is 2 to 3.
In the case of `COc1ccc(-c2nc3ncccn3c2C(=O)N(C)c2ccc(Cl)cc2)cc1` [compound 16, N-(4-chlorophenyl)-2-(4-methoxyphenyl)-N-methylimidazo[1,2-a]pyrimidine-3-carboxamide] it was 2 to 3; in that of `CN(C(=O)c1c(-c2ccccn2)nc2ncccn12)c1ccc2c(c1)CCC2` [compound 17, N-(2,3-dihydro-1H-inden-5-yl)-N-methyl-2-(pyridin-2-yl)imidazo[1,2-a]pyrimidine-3-carboxamide], 2 to 3.
Compound `CN(C(=O)c1c(-c2ccc(Cl)cc2)nc2ncccn12)c1ccc(F)cc1` [compound 18, 2-(4-chlorophenyl)-N-(4-fluorophenyl)-N-methylimidazo[1,2-a]pyrimidine-3-carboxamide] registered a fold induction at 10 µM of 2 to 3.
For `COc1ccc(N(C)C(=O)c2c(-c3ccc(Cl)cc3)nc3ncccn23)cc1OC` [compound 19, 2-(4-chlorophenyl)-N-(3,4-dimethoxyphenyl)-N-methylimidazo[1,2-a]pyrimidine-3-carboxamide], the fold induction at 10 µM was in the range of 2 to 3.
The same measure for `CN(C(=O)c1c(-c2cccnc2)nc2ncccn12)c1ccc(Cl)cc1` [compound 20, N-(4-chlorophenyl)-N-methyl-2-(pyridin-3-yl)imidazo[1,2-a]pyrimidine-3-carboxamide]: 2 to 3; for `CN(C(=O)c1c(-c2ccc(Cl)cc2Cl)nc2ncccn12)c1ccc(F)cc1` [compound 21, 2-(2,4-dichlorophenyl)-N-(4-fluorophenyl)-N-methylimidazo[1,2-a]pyrimidine-3-carboxamide]: 3 to 4; for `CN(C(=O)c1c(-c2ccccc2C(F)(F)F)nc2ncccn12)c1ccc(Cl)cc1` [compound 23, N-(4-chlorophenyl)-N-methyl-2-[2-(trifluoromethyl)phenyl]imidazo[1,2-a]pyrimidine-3-carboxamide]: 3 to 4.
For `CN(C(=O)c1c(-c2ccc(Cl)cc2)nc2ncccn12)c1ccc(S(=O)(=O)N(C)C)cc1` [compound 24, 2-(4-chlorophenyl)-N-[4-(dimethylsulfamoyl)phenyl]-N-methylimidazo[1,2-a]pyrimidine-3-carboxamide], the fold induction at 10 µM is 2 to 3.
`COc1ccc(N(C)C(=O)c2c(-c3ccc(Cl)cc3)nc3ncccn23)c(OC)c1` [compound 25, 2-(4-chlorophenyl)-N-(2,4-dimethoxyphenyl)-N-methylimidazo[1,2-a]pyrimidine-3-carboxamide] yielded a fold induction at 10 µM of 2 to 3.
In the case of `CN(C(=O)c1c(-c2ccccc2)nc2ncccn12)c1ccc(F)cc1` [compound 26, N-(4-fluorophenyl)-N-methyl-2-phenylimidazo[1,2-a]pyrimidine-3-carboxamide] it was 2 to 3.
The same measure for `CN(C(=O)c1c(-c2ccc(Cl)cc2)nc2ncccn12)c1ccc(O)c(O)c1` [compound 27, 2-(4-chlorophenyl)-N-(3,4-dihydroxyphenyl)-N-methylimidazo[1,2-a]pyrimidine-3-carboxamide]: 1.5 to 2; for `CN(C(=O)c1c(-c2ccc3c(c2)OCO3)nc2ncccn12)c1ccc(Cl)cc1` [compound 29, 2-(1,3-benzodioxol-5-yl)-N-(4-chlorophenyl)-N-methylimidazo[1,2-a]pyrimidine-3-carboxamide]: 3 to 4; for `CN(C(=O)c1c(-c2cccc(C(F)(F)F)c2)nc2ncccn12)c1ccc(Cl)cc1` [compound 31, N-(4-chlorophenyl)-N-methyl-2-[3-(trifluoromethyl)phenyl]imidazo[1,2-a]pyrimidine-3-carboxamide]: 3 to 4.
In the case of `O=C(Nc1ccc(Cl)cc1)c1c(-c2ccc(F)cc2)nc2ncccn12` [compound 32, N-(4-chlorophenyl)-2-(4-fluorophenyl)imidazo[1,2-a]pyrimidine-3-carboxamide] it was 1.5 to 2.
In turn, `COc1ccc(NC(=O)c2c(-c3ccc(F)cc3)nc3ncccn23)c(OC)c1` [compound 34, N-(2,4-dimethoxyphenyl)-2-(4-fluorophenyl)imidazo[1,2-a]pyrimidine-3-carboxamide] yielded a fold induction at 10 µM of 1.5 to 2.
With `CN(C(=O)c1c(-c2cccc(C#N)c2)nc2ncccn12)c1ccc(F)cc1` [compound 35, 2-(3-cyanophenyl)-N-(4-fluorophenyl)-N-methylimidazo[1,2-a]pyrimidine-3-carboxamide], the fold induction at 10 µM lay within 2 to 3.
The same measure for `CN(C(=O)c1c(-c2ccc(S(=O)(=O)N(C)C)cc2)nc2ncccn12)c1ccc(Cl)cc1` [compound 37, N-(4-chlorophenyl)-2-[4-(dimethylsulfamoyl)phenyl]-N-methylimidazo[1,2-a]pyrimidine-3-carboxamide]: 1.5 to 2.
In the case of `CN(C(=O)c1c(-c2ccc(S(=O)(=O)N(C)C)cc2)nc2ncccn12)c1ccc(F)cc1` [compound 38, 2-[4-(dimethylsulfamoyl)phenyl]-N-(4-fluorophenyl)-N-methylimidazo[1,2-a]pyrimidine-3-carboxamide] it was 1.5 to 2.
`O=C(Nc1ccc(F)cc1F)c1c(-c2ccc(F)cc2)nc2ncccn12` [compound 39, N-(2,4-difluorophenyl)-2-(4-fluorophenyl)imidazo[1,2-a]pyrimidine-3-carboxamide] registered a fold induction at 10 µM of 1.5 to 2.
